Measurements: patent US6566395B1, “Methods of treating proliferative disorders” (BioMedicines, Inc., priority 1999, dated 2003)

How the values were obtained:
[1] = tested on: OVCAR-5 ovarian cancer cell line; test: In vitro tumor cell growth inhibition, MTS dye conversion assay, OVCAR-5; format: cell-based, Human; details: Ovary, 4-6 days
Description: (§1) The ability of the compounds of formula I to inhibit tumor cell growth was determined using the assay described in Cory A. H et al., Cancer Commun. 3(7):207-12, 1991.
(§2) Briefly, the assay is a […] method for determining the number of viable cells in proliferation or chemosensitivity assays.
(§3) Human tumor cell lines were propagated under sterile conditions in RPMI 1640 (CellGro) with […] fetal bovine serum (Gibco BRL), 2 mM L-glutamine, and sodium bicarbonate (complete medium). The cells were then incubated at 37° C. in HEPA-filtered Sterilcult CO2 tissue culture incubators (Forma) with 5% CO2 and 95% hymidity. Each cell line was subcultured weekly or biweekly. […]
(§4) The test compounds (100 μL), dissolved in DMSO (Sigma, cell culture grade) and diluted with complete medium, were added to 96-well plates containing attached cellular monolayers (5000 cells/well in 100 μL). […] Antiproliferative effects were assessed with the 3-(4,5-dimethylthiazol-2-yl)-5-(3-carboxymethoxyphenyl)-2-(4-sulfophenyl)-2H-tetrazolium, inner salt (MTS dye) conversion assay. […] The absorbance of formazan in each monolayer was measured at 490 nm on a Coulter microplate reader at 2 and 4 hours after the addition of the MTS solution.
(§5) Growth inhibition data are expressed as a percentage of absorbance detected in control wells and is proportional to the number of viable cells in the culture. […]

[2] = tested on: SW-620 colon cancer cell line; test: In vitro tumor cell growth inhibition, MTS dye conversion assay, SW-620; format: cell-based, Human; details: 4-6 days
Description: as §1, §2, §3, §4, §5

MCF7 (Breast) = test: In vitro tumor cell growth inhibition, MTS dye conversion assay, MCF7; format: cell-based; details: Homo sapiens, 4-6 days, read-out: IC50 (concentration associated with 50% inhibition of cell growth)
Description: as §1, §2, §3, §4, §5

EKVX (Lung) = test: In vitro tumor cell growth inhibition, MTS dye conversion assay, EKVX; format: cell-based; details: Homo sapiens, 4-6 days, read-out: IC50 (concentration associated with 50% inhibition of cell growth)
Description: as §1, §2, §3, §4, §5

CCRF-CEM (Leukemia) = test: In vitro tumor cell growth inhibition, MTS dye conversion assay, CCRF-CEM; format: cell-based; details: Homo sapiens, 4-6 days, read-out: IC50 (concentration associated with 50% inhibition of cell growth)
Description: as §1, §2, §3, §4, §5

[3] = tested on: C6 (Central Nervous System); test: In vitro tumor cell growth inhibition, MTS dye conversion assay, C6; format: cell-based, Human; details: Rattus norvegicus, 4-6 days, read-out: IC50 (concentration associated with 50% inhibition of cell growth)
Description: as §1, §2, §3, §4, §5

[4] = Homo sapiens, read-out: IC50 (concentration associated with 50% inhibition of cell growth)

IC50 (concentration associated with 50% inhibition of cell growth) [1] | IC50 (concentration associated with 50% inhibition of cell growth) [2] | IC50 (MCF7 (Breast)) [µM] | IC50 (EKVX (Lung)) [µM] | IC50 (CCRF-CEM (Leukemia)) [µM] | IC50 [1, 4] [µM] | IC50 [2, 4] [µM] | IC50 [3] [µM] | SMILES
did not achieve IC50 effects | did not achieve IC50 effects |  |  |  |  |  |  | Cc1oncc1C(=O)Nc1ccc(C(F)(F)F)cc1 [lefunomide, 5-methylisoxazole-4-carboxylic acid-(4-trifluromethyl)-anilide, reference compound]
 |  | 13 | 14 | 28 | 13 | 6 | 12 | Cc1cc(NC(=O)C(C#N)C(=O)C2CC2)ccc1C(F)(F)F (centres unmarked) [laflunimus, N-(3-Methyl-4trifluoromethylphenyl) 2-Cyano-2-(cyclopropylcarbonyl)acetamide]
